In patent EP0425443A1, “Injectable antiparasitic agent” (CIBA-GEIGY AG, priority 1989, dated 1991):
≈ marks a conversion by molar mass, not a printed value.

Experiment: Solubility of the active substance in organic solvents
Format: physicochemical
Settings: dmso and n-methylpyrrolidone, organic solvent or mixture; in Dimethylsulfoxid und N-Methylpyrrolidon; Gewicht-pro-Volumen-Prozent; read-out: Solubility (lösen)
Excerpt: Injizierbare Zubereitungen stellen wegen der sehr genauen Dosierbarkeit auch kleiner Wirkstoffmengen, der leichten Anwendbarkeit und der geringfügigen Beunruhigung der zu behandelnden Tiere, insbesondere grösserer Nutztiere, wie beispielsweise Rinder, Schafe, Pferde und Esel, oftmals die günstigste Applikationsart dar. Bei der Verwendung von schwerlöslichen Substanzen wie insbesondere den Benzoylphenylharnstoffen in Form injizierbarer Formulierungen ergeben sich jedoch Probleme, wenn mit ihnen ein wirksamer Plasmaspiegel, d.h., eine gleichmässige Verteilung einer ausreichenden Wirkstoffmenge im Plasma, erreicht werden soll, weil das injizierte Material von der Gewebsflüssigkeit beeinflusst wird und damit beispielsweise die physikalisch-chemischen Eigenschaften besagten Materials so verändert werden können, dass ein erheblicher Anteil des injizierten Materials sehr rasch kristallisiert und dadurch an der Injektionsstelle oder in sehr naher Umgebung davon verbleibt. So lassen sich Benzoylharnstoffe, beispielsweise N-[3-(3-Chlor-5-trifluormethylpyridyl-2-oxy)-4-chlorphenyl]-N'-[2,6-difluorbenzoyl]-hamstoff, in Dimethylsulfoxid und N-Methylpyrrolidon (etwa 35 %, Prozentangaben bedeuten hier und im folgenden Gewichtpro-Volumen-Prozent) lösen. […]

Compound `O=C(NC(=O)c1c(F)cccc1F)Nc1ccc(Cl)c(Oc2ncc(C(F)(F)F)cc2Cl)c1` [N-[3-(3-Chlor-5-trifluormethylpyridyl-2-oxy)-4-chlorphenyl]-N'-[2,6-difluorbenzoyl]-harnstoff] has a solubility of roughly 350 mg/mL (≈ 691 mM).
